Legend:
CD73 [1] = target: T1, CD73 (Homo sapiens (Human), UniProt P21589); test: MDA-MB-231 Cell Based CD73 Activity Assay (DMEM); details: MDA-MB-231-GFP cells, DMEM medium with 10% human plasma, 200 uM AMP
CD73 [2] = target: T1, CD73; assay type: biochemical; details: 1 mM NaH2PO4 in enzyme buffer, CD73 0.3 nM, AMP 15 uM

T1 sequence (P21589 27-574): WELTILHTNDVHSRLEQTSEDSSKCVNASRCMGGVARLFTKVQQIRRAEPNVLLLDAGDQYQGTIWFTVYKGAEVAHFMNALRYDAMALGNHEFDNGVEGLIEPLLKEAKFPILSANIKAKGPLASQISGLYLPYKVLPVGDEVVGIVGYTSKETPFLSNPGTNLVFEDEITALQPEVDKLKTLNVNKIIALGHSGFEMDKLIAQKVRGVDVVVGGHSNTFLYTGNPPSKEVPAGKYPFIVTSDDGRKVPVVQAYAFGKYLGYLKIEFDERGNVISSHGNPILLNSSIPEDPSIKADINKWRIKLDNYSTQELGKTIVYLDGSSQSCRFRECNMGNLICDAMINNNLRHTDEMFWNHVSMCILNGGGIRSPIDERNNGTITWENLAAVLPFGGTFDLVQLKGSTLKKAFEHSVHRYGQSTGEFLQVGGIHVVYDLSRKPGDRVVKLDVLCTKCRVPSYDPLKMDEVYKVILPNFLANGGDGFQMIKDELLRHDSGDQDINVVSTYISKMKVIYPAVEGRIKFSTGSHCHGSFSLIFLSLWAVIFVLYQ

Row | Structure (SMILES) | EC50 (CD73 [1]) | IC50 (CD73 [2])
1 | O=c1[nH]cc(-c2cc(N3CC(F)(F)C4(CNC4)C3)c3nccn3n2)c(=O)[nH]1 [Example 501, 5-(8-(8,8-difluoro-2,6-diazaspiro[3.4]octan-6-yl)imidazo[1,2-b]pyridazin-6-yl)pyrimidine-2,4(1H,3H)-dione] | 108 nM | 20.9 nM
2 | O=c1[nH]cc(-c2cc(N3CC(F)(F)C4(CN(Cc5cccc(F)c5)C4)C3)c3nccn3n2)c(=O)[nH]1 [Example 502, 5-(8-(8,8-difluoro-2-(3-fluorobenzyl)-2,6-diazaspiro[3.4]octan-6-yl)imidazo[1,2-b]pyridazin-6-yl)pyrimidine-2,4(1H,3H)-dione] | 44.4 nM | 9.06 nM
3 | CC(=O)N1CC2(C1)CN(c1cc(-c3c[nH]c(=O)[nH]c3=O)nn3ccnc13)CC2(F)F [Example 503, 5-(8-(2-acetyl-8,8-difluoro-2,6-diazaspiro[3.4]octan-6-yl)imidazo[1,2-b]pyridazin-6-yl)pyrimidine-2,4(1H,3H)-dione] | 5.47 nM | 5.22 nM
4 | COC(=O)N1CC2(C1)CN(c1cc(-c3c[nH]c(=O)[nH]c3=O)nn3ccnc13)CC2(F)F [Example 504, Methyl 6-(6-(2,4-dioxo-1,2,3,4-tetrahydropyrimidin-5-yl)imidazo[1,2-b]pyridazin-8-yl)-8,8-difluoro-2,6-diazaspiro[3.4]octane-2-carboxylate] | 5.62 nM | 6.78 nM
5 | O=C(OCC(F)(F)F)N1CC2(C1)CN(c1cc(-c3c[nH]c(=O)[nH]c3=O)nn3ccnc13)CC2(F)F [Example 506, 2,2,2-trifluoroethyl 6-(6-(2,4-dioxo-1,2,3,4-tetrahydropyrimidin-5-yl)imidazo[1,2-b]pyridazin-8-yl)-8,8-difluoro-2,6-diazaspiro[3.4]octane-2-carboxylate] | 8.67 nM | 8.82 nM
6 | O=c1[nH]cc(-c2cc(N3CC(F)(F)C4(CN(CC(F)F)C4)C3)c3nccn3n2)c(=O)[nH]1 [Example 507, 5-(8-(2-(2,2-difluoroethyl)-8,8-difluoro-2,6-diazaspiro[3.4]octan-6-yl)imidazo[1,2-b]pyridazin-6-yl)pyrimidine-2,4(1H,3H)-dione] | 19.7 nM | 9.83 nM
7 | O=c1[nH]cc(-c2cc(N3CC(F)(F)C4(CN(CC(F)(F)F)C4)C3)c3nccn3n2)c(=O)[nH]1 [Example 508, 5-(8-(8,8-difluoro-2-(2,2,2-trifluoroethyl)-2,6-diazaspiro[3.4]octan-6-yl)imidazo[1,2-b]pyridazin-6-yl)pyrimidine-2,4(1H,3H)-dione] | 29 nM | 15 nM
8 | O=c1[nH]cc(-c2cc(-c3cnn(C(F)F)c3)c3nccn3n2)c(=O)[nH]1 [Example 509, 5-(8-(1-(difluoromethyl)-1H-pyrazol-4-yl)imidazo[1,2-b]pyridazin-6-yl)pyrimidine-2,4(1H,3H)-dione] | 90.1 nM | 49.5 nM
9 | COCCn1cc(-c2cc(-c3c[nH]c(=O)[nH]c3=O)nn3ccnc23)cn1 [Example 510, 5-(8-(1-(2-methoxyethyl)-1H-pyrazol-4-yl)imidazo[1,2-b]pyridazin-6-yl)pyrimidine-2,4(1H,3H)-dione] | 382 nM | 246 nM
10 | O=c1[nH]cc(-c2cc(-c3cnn(CCN4CCOCC4)c3)c3nccn3n2)c(=O)[nH]1 [Example 511, 5-(8-(1-(2-morpholinoethyl)-1H-pyrazol-4-yl)imidazo[1,2-b]pyridazin-6-yl)pyrimidine-2,4(1H,3H)-dione] | 431 nM | > 250 nM
11 | Cn1ccc(-c2cc(-c3c[nH]c(=O)[nH]c3=O)nn3ccnc23)n1 [Example 512, 5-(8-(1-methyl-1H-pyrazol-3-yl)imidazo[1,2-b]pyridazin-6-yl)pyrimidine-2,4(1H,3H)-dione] | 1140 nM | > 250 nM
12 | CC1(C)CC(=O)N(c2cc(-c3c[nH]c(=O)[nH]c3=O)nn3ccnc23)C1 [Example 513, 5-(8-(4,4-dimethyl-2-oxopyrrolidin-1-yl)imidazo[1,2-b]pyridazin-6-yl)pyrimidine-2,4(1H,3H)-dione] | 934 nM | > 250 nM
13 | CC1(C)CN(c2cc(-c3c[nH]c(=O)[nH]c3=O)nn3ccnc23)C(=O)O1 [Example 514, 5-(8-(5,5-dimethyl-2-oxooxazolidin-3-yl)imidazo[1,2-b]pyridazin-6-yl)pyrimidine-2,4(1H,3H)-dione] | 269 nM | 212 nM
14 | CC1(C)CN(c2cc(-c3c[nH]c(=O)[nH]c3=O)nn3c(Cl)c(Cl)nc23)CC1(F)F [Example 515, 5-(2,3-dichloro-8-(3,3-difluoro-4,4-dimethylpyrrolidin1-yl)imidazo[1,2-b]pyridazin-6-yl)pyrimidine-2,4(1H,3H)-dione] | 228 nM | 1.72 nM
15 | C[C@H]1CN(c2cc(-c3c[nH]c(=O)[nH]c3=O)nn3ccnc23)CC1(F)F [Example 516, (S)-5-(8-(3,3-difluoro-4-methylpyrrolidin-1-yl)imidazo[1,2-b]pyridazin-6-yl)pyrimidine-2,4(1H,3H)-dione] | 12.8 nM | 3.17 nM
16 | C[C@@H]1CN(c2cc(-c3c[nH]c(=O)[nH]c3=O)nn3ccnc23)CC1(F)F [Example 517, (R)-5-(8-(3,3-difluoro-4-methylpyrrolidin-1-yl)imidazo[1,2-b]pyridazin-6-yl)pyrimidine-2,4(1H,3H)-dione] | 21.4 nM | 5.23 nM
17 | C[C@H]1CN(c2cc(-c3c[nH]c(=O)[nH]c3=O)nn3c(F)cnc23)CC1(F)F [Example 518, (S)-5-(8-(3,3-difluoro-4-methylpyrrolidin-1-yl)-3-fluoroimidazo[1,2-b]pyridazin-6-yl)pyrimidine-2,4(1H,3H)-dione] | 19.6 nM | 5.5 nM
18 | C[C@@H]1CN(c2cc(-c3c[nH]c(=O)[nH]c3=O)nn3c(F)cnc23)CC1(F)F [Example 519, (R)-5-(8-(3,3-difluoro-4-methylpyrrolidin-1-yl)-3-fluoroimidazo[1,2-b]pyridazin-6-yl)pyrimidine-2,4(1H,3H)-dione] | 18.3 nM | 6.58 nM
19 | C[C@H]1CN(c2cc(-c3c[nH]c(=O)[nH]c3=O)nn3c(Cl)cnc23)CC1(F)F [Example 520, (S)-5-(3-chloro-8-(3,3-difluoro-4-methylpyrrolidin-1-yl)imidazo[1,2-b]pyridazin-6-yl)pyrimidine-2,4(1H,3H)-dione] | 421 nM | 43.8 nM
20 | C[C@@H]1CN(c2cc(-c3c[nH]c(=O)[nH]c3=O)nn3c(Cl)cnc23)CC1(F)F [Example 521, (R)-5-(3-chloro-8-(3,3-difluoro-4-methylpyrrolidin-1-yl)imidazo[1,2-b]pyridazin-6-yl)pyrimidine-2,4(1H,3H)-dione] | 223 nM | 33.3 nM

More lines, now with the values ahead:

Row | EC50 (CD73 [1]) | IC50 (CD73 [2]) | Structure (SMILES)
21 | 1680 nM | > 250 nM | O=c1[nH]cc(-c2cc(NCCc3ccccc3Cl)c3nccn3n2)c(=O)[nH]1 [Example 491, 5-(8-((2-chlorophenethyl)amino)imidazo[1,2-b]pyridazin-6-yl)pyrimidine-2,4(1H,3H)-dione]
22 | 58.4 nM | 25.6 nM | O=c1[nH]cc(-c2cc(NCCc3cccc(F)c3)c3nccn3n2)c(=O)[nH]1 [Example 492, 5-(8-((3-fluorophenethyl)amino)imidazo[1,2-b]pyridazin-6-yl)pyrimidine-2,4(1H,3H)-dione]
23 | 837 nM | 194 nM | O=c1[nH]cc(-c2cc(NCCc3ccccc3F)c3nccn3n2)c(=O)[nH]1 [Example 493, 5-(8-((2-fluorophenethyl)amino)imidazo[1,2-b]pyridazin-6-yl)pyrimidine-2,4(1H,3H)-dione]
24 | 291 nM | 102 nM | O=c1[nH]cc(-c2cc(NC[C@@H](F)c3ccccc3)c3nccn3n2)c(=O)[nH]1 [Example 494, (S)-5-(8-((2-fluoro-2-phenylethyl)amino)imidazo[1,2-b]pyridazin-6-yl)pyrimidine-2,4(1H,3H)-dione]
25 | 748 nM | > 250 nM | O=c1[nH]cc(-c2cc(NCCc3c[nH]c4ccc(Cl)cc34)c3nccn3n2)c(=O)[nH]1 [Example 495, 5-(8-((2-(5-chloro-1H-indol-3-yl)ethyl)amino)imidazo[1,2-b]pyridazin-6-yl)pyrimidine-2,4(1H,3H)-dione]
26 | 154 nM | 64 nM | O=c1[nH]cc(-c2cc(NCCc3ccc(F)cc3)c3nccn3n2)c(=O)[nH]1 [Example 496, 5-(8-((4-fluorophenethyl)amino)imidazo[1,2-b]pyridazin-6-yl)pyrimidine-2,4(1H,3H)-dione]
27 | 569 nM | 64.5 nM | O=c1[nH]cc(-c2cc(NCCc3ccc(Cl)cc3)c3nccn3n2)c(=O)[nH]1 [Example 497, 5-(8-((4-chlorophenethyl)amino)imidazo[1,2-b]pyridazin-6-yl)pyrimidine-2,4(1H,3H)-dione]
28 | 260 nM | 50.7 nM | O=c1[nH]cc(-c2cc(NCC(F)(F)c3ccccc3)c3nccn3n2)c(=O)[nH]1 [Example 498, 5-(8-((2,2-difluoro-2-phenylethyl)amino)imidazo[1,2-b]pyridazin-6-yl)pyrimidine-2,4(1H,3H)-dione]
29 | 501 nM | 163 nM | C[C@H](CNc1cc(-c2c[nH]c(=O)[nH]c2=O)nn2ccnc12)c1ccccc1 [Example 499, (S)-5-(8-((2-phenylpropyl)amino)imidazo[1,2-b]pyridazin-6-yl)pyrimidine-2,4(1H,3H)-dione]
30 | 457 nM | 108 nM | C[C@@H](CNc1cc(-c2c[nH]c(=O)[nH]c2=O)nn2ccnc12)c1ccccc1 [Example 500, (R)-5-(8-((2-phenylpropyl)amino)imidazo[1,2-b]pyridazin-6-yl)pyrimidine-2,4(1H,3H)-dione]
31 | 10.1 nM | 5.61 nM | O=C(OCc1ccccc1)N1CC2(C1)CN(c1cc(-c3c[nH]c(=O)[nH]c3=O)nn3ccnc13)CC2(F)F [Example 505, benzyl 6-(6-(2,4-dioxo-1,2,3,4-tetrahydropyrimidin-5-yl)imidazo[1,2-b]pyridazin-8-yl)-8,8-difluoro-2,6-diazaspiro[3.4]octane-2-carboxylate]

From patent publication US20240043427A1 (Gilead Sciences, Inc., priority 2020, published 2024)
